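All cell lines were grown in 96-well plates and treated with compound for 48 hours. The concentration for full growth arrest is given as TGI.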

Common to all, as to experiment: inhibition of tumour cell growth, NCI panel, 48 h
In test [1] the test system is MDA-N.
Test [2] deals with HS 578T breast.
Test [3] deals with 786-0 renal.
In test [4] the test system is MOLT-4 leukemia.
The subject of test [5] is UO-31 renal.
For test [6], the system named is OVCAR-5 ovarian.
Test [7] relates to UACC-257 melanoma.
In test [8] the test system is DU-145 prostate.
In test [9] the test system is COLO 205 colon.
The subject of test [10] is HCT-116 colon.
Test [11] concerns SF-268 CNS.
Test [12] has as its system M14 melanoma.
The test system of test [13] is SF-539 CNS.
In test [14] the test system is NCI-H460 lung.
Test [15] deals with UACC-62 melanoma.
Test [16] has as its system SR leukemia.

On to `CCOC(=O)C1=COC(C)(C)CC1=O`, for which the TGI in [1], in test [2], in test [3], in test [4], in test [5] and in test [6] was over 100 µM each time. In addition, the TGI in test [7], in test [8], in test [9], in test [10], in [11] and in test [12] was over 100 µM each time. The TGI in [13], in test [14] and in [15] was over 100 µM throughout.
As to `c1ccc(CNCCCNCCCCNCCCNCc2ccccc2)cc1`, the TGI in test [16] was found to be 25.6 µM; in [1], 4.13 µM; in [2], 3.74 µM; in [3], 2.97 µM; in test [4], 2.74 µM; in test [5] it was 25.7 µM. For the same compound, the TGI in [6] was 16.2 µM; in [7], 31.1 µM; in test [8] it was 25.4 µM; in test [10], 14.4 µM; in test [11], 25.6 µM; in test [12], 16.1 µM. The TGI in test [13] came to 3.72 µM; in test [14], 19.1 µM; in test [15] it was 21.1 µM.
`Nc1nc(NNc2ccccc2F)cc(=O)[nH]1`: the TGI in [16], in [1], in [2], in test [3], in [4] and in [5] was over 100 µM throughout. Besides, the TGI in [6], in [7], in test [8], in test [9], in [10] and in test [12] was over 100 µM throughout. Besides, the TGI in test [13] and in test [14] was over 100 µM in each case.
`O=C(Nc1ccc(Cl)cc1Cl)c1cc2nc3ccccc3c(=O)n2c2ccccc12`: the TGI in test [1], in [2], in [3], in test [5], in [6] and in test [7] was over 10 µM each time. The TGI in test [8], in test [10], in [11], in [12], in test [13] and in test [14] was over 10 µM throughout. Also, the TGI in test [15] is over 10 µM.
For the compound `CC(=O)[C@H]1[C@@H](OCc2ccccc2)O[N+]([O-])=C(C)[C@@H]1c1ccccc1`, the TGI in test [16] was 42 µM; in test [1], over 100 µM; in [2] it was 72.4 µM; in [3] it was 31.4 µM; in test [4] it was 41.2 µM; in [5] it was 40.2 µM. Moreover, the TGI in test [6], in test [7], in [8], in [9], in test [11] and in test [12] was over 100 µM throughout. Moreover, the values for the TGI in test [13], in test [14] and in test [15] were 45.5 µM, over 100 µM and over 100 µM, respectively.
For `CCOC(=O)C(Cc1ccc2c(c1)CCC2)Cc1ccc2c(c1)CCC2`, the TGI in [16] is 60.1 µM; in test [1], over 100 µM; in test [2], over 100 µM; in test [3], over 100 µM; in test [4], 41.1 µM; in test [5], over 100 µM. Moreover, the TGI in test [6], in test [7], in [8], in test [10], in test [11] and in [12] was over 100 µM throughout. In addition, the TGI in test [13] and in test [14] was over 100 µM each time.
As for `Cc1ccc(C)c(NC(=O)/C(=N\N)C(c2cnc3ccc([N+](=O)[O-])cc3n2)[N+](=O)[O-])c1` (centres undefined), the TGI in test [16], in test [1], in test [2], in test [3], in [4] and in [5] was over 100 µM throughout. For the same compound, the TGI in test [6], in [7], in [10], in test [11], in test [12] and in [13] was over 100 µM each time. Moreover, the TGI in test [14] and in [15] was over 100 µM each time.
On to `COC(=O)CCN1CCN(CCO)CC1C` (centres undefined), for which the TGI in test [16], in test [1], in test [2], in [3], in [4] and in test [5] was over 10 µM each time. For the same compound, the TGI in [7], in test [8], in test [9], in test [10], in [11] and in [12] was over 10 µM throughout. The TGI in test [13], in [14] and in test [15] was over 10 µM throughout.
For `Oc1ccc(NCc2cc(O)ccc2O)cc1`, the TGI is 11.1 µM in test [1]; over 100 µM in test [2]; 31.9 µM in test [3]; 7.81 µM in test [4]; 29.4 µM in test [5]; 35.9 µM in test [6]. For the same compound, the TGI was determined as 32 µM in test [7]; 32.9 µM in test [8]; 62.3 µM in test [9]; 35.8 µM in [10]; 34.8 µM in test [11]; 33.9 µM in test [12]. Moreover, the TGI in [13] was 56.4 µM; in test [14] it was 39.1 µM; in [15] it was 29.3 µM.
Take `O=C1C=Cc2c1csc2Br`: the TGI in test [16] is 22.7 µM; in [1] it was over 100 µM; in [2], over 100 µM; in test [3] it was over 100 µM; in test [4] it was 54.7 µM; in [5] it was 72.5 µM. Besides, the TGI in [6], in test [7], in [8], in test [9], in test [10] and in test [11] was over 100 µM each time. The figures for the TGI in test [12], in test [14] and in test [15] were 47.2 µM, over 100 µM and over 100 µM, respectively.
On to `O=CN1CCN(C(=O)c2ccc(Cl)cc2)C1=S`, for which the TGI was 31.5 µM in test [1]; over 100 µM in [2]; 19.7 µM in [3]; 48.2 µM in test [4]; 35.6 µM in test [6]; 33.7 µM in [7]. Also, the TGI in test [8] was 29.1 µM; in [9], 41.9 µM; in test [10] it was 34.8 µM; in [11], 35.9 µM; in [12] it was 27.7 µM; in test [13], 61.7 µM. Further, the figures for the TGI in test [14] and in [15] were 52 µM and 29.3 µM, respectively.
Consider `Nc1ncnc2c1ccn2CC=C(CO)CO`, for which the TGI in [1], in test [2], in test [3], in test [4], in test [5] and in [6] was over 100 µM in each case. Besides, the TGI in test [7], in test [8], in test [10], in test [11], in [12] and in [13] was over 100 µM throughout. In addition, the TGI in test [14] and in test [15] was over 100 µM each time.
Regarding `O=C(/C=C/c1cc(F)ccc1F)OCCc1ccccc1`, the TGI in test [16], in [1], in test [2], in test [3], in test [4] and in [5] was over 100 µM throughout. The TGI in [6], in [7], in test [9], in test [10], in test [11] and in [12] was over 100 µM in each case. Further, the TGI in [13] and in [15] was over 100 µM throughout.
Take `COc1cc(CCC(=O)O)c2cc3ccccc3cc2c1O`: the TGI in [16] is 33.1 µM; in test [1] it was 32.5 µM; in [2] it was over 100 µM; in [3] it was 30.4 µM; in [4] it was 21.9 µM; in test [5], 35.7 µM. Also, the TGI in test [6] was 45.9 µM; in test [7], 31 µM; in test [9] it was 36.2 µM; in [10], 31 µM; in test [11], 38.1 µM; in test [12] it was 42.6 µM. In addition, the TGI is 47.2 µM in [14] and 37.7 µM in [15].
For the compound `CCCC(=O)n1[nH]c(=O)n(C(C)(C)C)c1=O`, the TGI in test [16], in test [1], in [2], in test [3], in test [4] and in test [5] was over 100 µM in each case. In addition, the TGI in [6], in [7], in [8], in test [9], in test [10] and in [11] was over 100 µM throughout. In addition, the TGI in test [12], in test [14] and in [15] was over 100 µM each time.
Turning to `O=C1CC(NC2CC(=O)c3c(Br)sc(Br)c32)c2c(Br)sc(Br)c21` (centres undefined), the TGI in test [1] was 5.82 µM; in test [2], 33.2 µM; in test [3], 2.9 µM; in test [4], over 100 µM; in [5] it was 4.46 µM; in test [6] it was 41.4 µM. For the same compound, the TGI came to 4.93 µM in [7]; 16.5 µM in test [8]; 8.77 µM in test [9]; 6.46 µM in [10]; 26.2 µM in [11]; 11.9 µM in test [12]. Besides, the TGI in [14] was determined as 38.2 µM; in test [15], 24.2 µM.
As for `O=S(=O)(c1ccccc1)[C@@H]1[C@H]2C=C[C@](CS)(O2)[C@H]1S(=O)(=O)c1ccccc1`, the TGI in test [16] was over 100 µM; in test [1] it was over 100 µM; in [2], over 100 µM; in [3], 87.2 µM; in [4], 43.6 µM; in test [5], over 100 µM. Further, the TGI in [6] is over 100 µM; in test [7], over 100 µM; in test [8], over 100 µM; in [9], over 100 µM; in test [10], 26 µM; in test [11], over 100 µM. Besides, the TGI in [12], in test [14] and in test [15] was over 100 µM throughout.
Turning to `NS(=O)(=O)c1ccc(N=Nc2ccc(O)c(O)c2)cc1`, the TGI was 48 µM in [16]; over 100 µM in test [1]; 67.3 µM in test [2]; over 100 µM in test [3]; over 100 µM in [4]; 26.4 µM in [5]. The TGI in test [6] was over 100 µM; in [7] it was 66.6 µM; in test [8], over 100 µM; in test [9], 40.3 µM; in test [10], 26.2 µM; in test [11], 50.2 µM. Also, the TGI in test [12] was 65.2 µM; in [13] it was 45.1 µM; in test [14], 58.9 µM.
`Cc1ccccc1C(=O)NC(O)(C(F)(F)F)C(F)(F)F`: the TGI in [1], in [2], in [3], in test [4], in test [5] and in test [6] was over 100 µM each time. Moreover, the TGI in test [7], in test [8], in test [9], in test [10], in test [11] and in test [12] was over 100 µM each time. Besides, the TGI in [13] and in test [14] was over 100 µM each time.

These data come from PubChem BioAssay (NCI).
